{"source": "patent US5698547A", "about": "“Cephalosporin antibiotics” (Microcide Pharmaceuticals, Inc., priority 1995, dated 1997)", "note": "Structures can show the parent of a compound that is named as a salt."}
{"tested_on": "S. aureus Col (Meth^R) (lac^-)", "assay": "MIC by agar dilution, S. aureus Col (Meth^R) (lac^-)", "format": "cell-based", "conditions": "Staphylococcus aureus; agar dilution; S. aureus Col (Meth^R) (lac^-); read-out: MIC", "procedure,_shortened": "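Agar dilution per NCCLS (1991): two-fold dilutions from 128 μg/mL down to ≤0.25 μg/mL in Mueller-Hinton agar, each level in duplicate. Spots of about 10^4 cfu of log-phase culture; 16-20 h at 35°-36° C. MIC in μg/ml is the lowest concentration inhibiting growth.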", "units": {"MIC": "µg/mL"}}
{"smiles": "N#CCC(=O)N[C@@H]1C(=O)N2C(C(=O)O)=C(Sc3cccnc3-c3ccccc3)CS[C@H]12", "note": "[Cmpd 85, (7R)-7-[(Cyanoacetyl)amino]-3-(2-phenylpyridin-3-ylthio)-3-cephem-4-carboxylic acid]", "MIC": 4}
{"smiles": "Nc1nc(/C(=N/OC2CCCC2)C(=O)N[C@@H]2C(=O)N3C(C(=O)O)=C(Sc4cccnc4-c4ccccc4)CS[C@H]23)cs1", "note": "[Cmpd 86, (7R)-7-[(Z)-2-(aminothiazol-4-yl)-2-(cyclopentyloxyimino)acetamido]-3-(2-phenylpyridin-3-ylthio)-3-cephem-4-carboxylic acid]", "MIC": 8}
{"smiles": "Nc1nc(/C(=N/OCCF)C(=O)N[C@@H]2C(=O)N3C(C(=O)O)=C(Sc4ccnn4-c4ccccc4)CS[C@H]23)cs1", "note": "[Cmpd 90, (7R)-7-[(Z)-2-(aminothiazol-4-yl)-2-(2-fluoroethyloxyimino)acetamido]-3-(1-N-phenylpyrazol-5-ylthio)-3-cephem-4-carboxylic acid]", "MIC": 8}
{"smiles": "O=C(Cc1ccccc1)N[C@@H]1C(=O)N2C(C(=O)O)=C(Sc3cnnn3-c3ccccc3)CS[C@H]12", "note": "[Cmpd 91, (7R)-7-[(Phenylacetyl)amino]-3-(1-N-phenyl-1,2,3-triazol-5-ylthio)-3-cephem-4-carboxylic acid]", "MIC": 4}
{"smiles": "Nc1nc(-c2ccccc2)c(SC2=C(C(=O)O)N3C(=O)[C@@H](NC(=O)Cc4ccccc4)[C@H]3SC2)s1", "note": "[Cmpd 92, (7R)-7-[(Phenylacetyl)amino]-3-(2-amino-4-phenylthiazol-5-ylthio)-3-cephem-4-carboxylic acid]", "MIC": 2}
{"smiles": "O=C(Cc1ccccc1)N[C@@H]1C(=O)N2C(C(=O)O)=C(Sc3snnc3-c3ccccc3)CS[C@H]12", "note": "[Cmpd 93, (7R)-7-[(Phenylacetyl)amino]-3-(4-phenyl-1,2,3-thiadiazol-5-ylthio)-3-cephem-4-carboxylic acid]", "MIC": 2}
{"smiles": "O=C(Cc1ccccc1)N[C@@H]1C(=O)N2C(C(=O)O)=C(Sc3nnnn3-c3ccccc3)CS[C@H]12", "note": "[Cmpd 94, (7R)-7-[(Phenylacetyl)amino]-3-(1-N-phenyltetrazol-5-ylthio)-3-cephem-4-carboxylic acid]", "MIC": 4}
{"smiles": "O=C(Cc1ccccc1)N[C@@H]1C(=O)N2C(C(=O)O)=C(Sc3ccccc3-c3cnco3)CS[C@H]12", "note": "[Cmpd 95, (7R)-7-[(Phenylacetyl)amino]-3-(2-oxazol-5-ylphenylthio)-3-cephem-4-carboxylic acid]", "MIC": 4}
{"smiles": "NCc1ccccc1CC(=O)N[C@@H]1C(=O)N2C(C(=O)O)=C(Sc3ccnn3-c3ccccc3)CS[C@H]12", "note": "[Cmpd 96, (7R)-7-[((2-aminomethylphenyl)acetyl)amino]-3-(1-N-phenylpyrazol-5-ylthio)-3-cephem-4-carboxylic acid]", "MIC": 8}
{"smiles": "Nc1nc(/C(=N/OCCF)C(=O)N[C@@H]2C(=O)N3C(C(=O)O)=C(Sc4ccnn4-c4ccccc4)CS[C@H]23)c(Cl)s1", "note": "[Cmpd 98, (7R)-7-[(Z)-2-(2-amino-5-chlorothiazol-4-yl)-2-(2-fluoroethyloxyimino)acetamido]-3-(1-N-phenylpyrazol-5-ylthio)-3-cephem-4-carboxylic acid]", "MIC": 2}
{"smiles": "N=C(N)SCc1ccccc1SC1=C(C(=O)O)N2C(=O)[C@@H](NC(=O)Cc3ccc(O)cc3)[C@H]2SC1", "note": "[Cmpd 99, (7R)-7-[((4-Hydroxyphenyl)acetyl)amino]-3-(2-isothiouroniummethylphenylthio)-3-cephem-4-carboxylic acid, inner salt]", "MIC": 4}
{"smiles": "N=C(N)SCCc1ccccc1SC1=C(C(=O)O)N2C(=O)[C@@H](NC(=O)Cc3ccccc3)[C@H]2SC1", "note": "[Cmpd 100, (7R)-7-[(Phenylacetyl)amino]-3-(2-(2-isothiouronium)ethylphenylthio)-3-cephem-4-carboxylate, inner salt]", "MIC": 4}
{"smiles": "O=C(Cc1ccccc1)N[C@@H]1C(=O)N2C(C(=O)O)=C(Sc3ccnn3-c3ccccn3)CS[C@H]12", "note": "[Cmpd 105, (7R)-7-[(Phenylacetyl)amino]-3-(1-N-(pyridin-2-yl)pyrazol-5-ylthio)-3-cephem-4-carboxylic acid]", "MIC": 4}
{"smiles": "CCCCCC(=O)N[C@@H]1C(=O)N2C(C(=O)O)=C(Sc3ccnn3-c3ccccc3)CS[C@H]12", "note": "[Cmpd 109, (7R)-7-[(hexanoyl)amino]-3-(1-N-phenylpyrazol-5-ylthio)-3-cephem-4-carboxylic acid]", "MIC": 4}
{"smiles": "O=C(Cc1ccco1)N[C@@H]1C(=O)N2C(C(=O)O)=C(Sc3ccnn3-c3ccccc3)CS[C@H]12", "note": "[Cmpd 111, (7R)-7-[(2-furylacetyl)amino]-3-(1-N-phenylpyrazol-5-ylthio)-3-cephem-4-carboxylic acid]", "MIC": 8}
{"smiles": "O=C(Cc1ccccc1)N[C@@H]1C(=O)N2C(C(=O)O)=C(Sc3ccnn3-c3cccc([N+](=O)[O-])c3)CS[C@H]12", "note": "[Cmpd 113, (7R)-7-[(Phenylacetyl)amino]-3-(1-N-(3-nitrophenyl)pyrazol-5-ylthio)-3-cephem-4-carboxylic acid]", "MIC": 4}
{"smiles": "COc1ccc(-n2nccc2SC2=C(C(=O)O)N3C(=O)[C@@H](NC(=O)Cc4ccccc4)[C@H]3SC2)cc1", "note": "[Cmpd 114, (7R)-7-[(Phenylacetyl)amino]-3-(1-N-(4-methoxyphenyl)pyrazol-5-ylthio)-3-cephem-4-carboxylic acid]", "MIC": 4}
{"smiles": "O=C(Cc1cccs1)N[C@@H]1C(=O)N2C(C(=O)O)=C(Sc3ccnn3-c3ccccc3)CS[C@H]12", "note": "[Cmpd 116, (7R)-7-[(2-thienylacetyl)amino]-3-(1-N-phenylpyrazol-5-ylthio)-3-cephem-4-carboxylic acid]", "MIC": 4}
{"smiles": "COc1cccc(-n2nccc2SC2=C(C(=O)O)N3C(=O)[C@@H](NC(=O)Cc4ccccc4)[C@H]3SC2)c1", "note": "[Cmpd 117, (7R)-7-[(Phenylacetyl)amino]-3-(1-N-(3-methoxyphenyl)pyrazol-5-ylthio)-3-cephem-4-carboxylic acid]", "MIC": 8}
{"smiles": "Nc1nnc(SCC(=O)N[C@@H]2C(=O)N3C(C(=O)O)=C(Sc4ccnn4-c4ccccc4)CS[C@H]23)s1", "note": "[Cmpd 120]", "MIC": 8}
{"smiles": "O=C(O)C1=C(Sc2ccnn2-c2ccccc2)CS[C@@H]2[C@H](NC(=O)C(=NO)c3ccco3)C(=O)N12", "note": "[Cmpd 121, (7R)-7-[2-(2-furyl)-2-(hydroxyimino)acetamido]-3-(1-N-phenylpyrazol-5-ylthio)-3-cephem-4-carboxylic acid]", "MIC": 4}
{"smiles": "O=C(Cc1ccccc1)N[C@@H]1C(=O)N2C(C(=O)O)=C(Sc3ccnn3-c3ccc(F)cc3)CS[C@H]12", "note": "[Cmpd 123, (7R)-7-[(Phenylacetyl)amino]-3-(1-N-(4-fluorophenyl)pyrazol-5-ylthio)-3-cephem-4-carboxylic acid]", "MIC": 4}
{"smiles": "N=C(N)SCc1ccccc1SC1=C(C(=O)O)N2C(=O)[C@@H](NC(=O)Cc3ccc(CN)cc3)[C@H]2SC1", "note": "[Cmpd 124, (7R)-7-[((4-aminomethylphenyl)acetyl)amino]-3-(2-isothiouroniummethylphenylthio)-3-cephem-4-carboxylate, trifluoroacetic acid salt]", "MIC": 4}
{"smiles": "CSCC(=O)N[C@@H]1C(=O)N2C(C(=O)O)=C(Sc3ccccc3CSC(=N)NC(=N)N)CS[C@H]12", "note": "[Cmpd 126, (7R)-7-[(methylthioacetyl)amino]-3-(2-(N-amidino)isothiouroniummethylphenylthio)-3-cephem-4-carboxylate, inner salt]", "MIC": 8}
{"smiles": "N=C(N)NCc1ccccc1SC1=C(C(=O)O)N2C(=O)[C@@H](NC(=O)Cc3ccccc3)[C@H]2SC1", "note": "[Cmpd 128, (7R)-7-[(Phenylacetyl)amino]-3-(2-guanidiniummethylphenylthio)-3-cephem-4-carboxylate, inner salt]", "MIC": 8}
